Results reported in PubChem BioAssay (NCI).
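Results reflect a 48-hour exposure of cells in 96-well plates to compound at five concentrations. Here, GI50 denotes the concentration required for 50% inhibition of growth. TGI: total growth inhibition.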

Key:
Assay in all cases: growth of human tumour cells (NCI), 48 h
SF-539 CNS = test system: SF-539 CNS
HOP-92 NSCLC = test system: HOP-92 NSCLC
UACC-62 melanoma = test system: UACC-62 melanoma
K-562 leukemia = test system: K-562 leukemia
SNB-75 CNS = test system: SNB-75 CNS
EKVX NSCLC = test system: EKVX NSCLC
SW-620 colon = test system: SW-620 colon
OVCAR-3 ovarian = test system: OVCAR-3 ovarian
SF-295 CNS = test system: SF-295 CNS
TK-10 renal = test system: TK-10 renal
RPMI-8226 leukemia = test system: RPMI-8226 leukemia
T-47D breast = test system: T-47D breast
COLO 205 colon = test system: COLO 205 colon
NCI-H522 lung = test system: NCI-H522 lung
SR leukemia = test system: SR leukemia
NCI-H460 lung = test system: NCI-H460 lung
OVCAR-8 ovarian = test system: OVCAR-8 ovarian
NCI-H23 lung = test system: NCI-H23 lung
A498 renal = test system: A498 renal
MCF7 breast = test system: MCF7 breast
SNB-19 CNS = test system: SNB-19 CNS
ACHN renal = test system: ACHN renal
CCRF-CEM leukemia = test system: CCRF-CEM leukemia
SK-MEL-2 melanoma = test system: SK-MEL-2 melanoma
MOLT-4 leukemia = test system: MOLT-4 leukemia
HOP-62 NSCLC = test system: HOP-62 NSCLC
DU-145 prostate = test system: DU-145 prostate
NCI/ADR-RES ovarian = test system: NCI/ADR-RES ovarian
MDA-MB-231 breast = test system: MDA-MB-231 breast
CAKI-1 renal = test system: CAKI-1 renal
NCI-H226 lung = test system: NCI-H226 lung
HCT-15 colon = test system: HCT-15 colon
SK-MEL-28 melanoma = test system: SK-MEL-28 melanoma
OVCAR-5 ovarian = test system: OVCAR-5 ovarian
SK-OV-3 ovarian = test system: SK-OV-3 ovarian
PC-3 prostate = test system: PC-3 prostate
HCC-2998 colon = test system: HCC-2998 colon
M14 melanoma = test system: M14 melanoma
HCT-116 colon = test system: HCT-116 colon
SN12C renal = test system: SN12C renal
HL-60(TB) leukemia = test system: HL-60(TB) leukemia
SF-268 CNS = test system: SF-268 CNS
OVCAR-4 ovarian = test system: OVCAR-4 ovarian
HT29 colon = test system: HT29 colon
A549 NSCLC = test system: A549 NSCLC
BT-549 breast = test system: BT-549 breast
LOX IMVI melanoma = test system: LOX IMVI melanoma
UO-31 renal = test system: UO-31 renal
U251 CNS = test system: U251 CNS
IGROV1 ovarian = test system: IGROV1 ovarian
SK-MEL-5 melanoma = test system: SK-MEL-5 melanoma
MDA-MB-435 = test system: MDA-MB-435
786-0 renal = test system: 786-0 renal
UACC-257 melanoma = test system: UACC-257 melanoma
HS 578T breast = test system: HS 578T breast
RXF 393 renal = test system: RXF 393 renal
KM12 colon = test system: KM12 colon

## COC(=O)[C@H]1[C@@H](O)[C@@]2(O)c3c(OC)cc(OC)cc3O[C@@]2(c2ccc(OC)cc2)[C@@H]1c1ccccc1
SF-539 CNS
  GI50: 0.0079 µM
  TGI: 0.072 µM
HOP-92 NSCLC
  GI50: 0.048 µM
  TGI: 3.89 µM
UACC-62 melanoma
  GI50: 0.0383 µM
  TGI: 0.569 µM
K-562 leukemia
  GI50: 0.00961 µM
  TGI: 6.82 µM
SNB-75 CNS
  GI50: 0.0429 µM
  TGI: 1.25 µM
EKVX NSCLC
  GI50: 0.0206 µM
  TGI: 0.36 µM
SW-620 colon
  GI50: 0.00912 µM
  TGI: 2.32 µM
OVCAR-3 ovarian
  GI50: 0.0223 µM
  TGI: 0.304 µM
SF-295 CNS
  GI50: 0.0141 µM
  TGI: 0.126 µM
TK-10 renal
  GI50: 0.0455 µM
  TGI: 0.166 µM
RPMI-8226 leukemia
  GI50: 0.0192 µM
  TGI: 0.339 µM
T-47D breast
  GI50: 0.00722 µM
  TGI: 0.103 µM
COLO 205 colon
  GI50: 0.0153 µM
  TGI: 0.052 µM
NCI-H522 lung
  GI50: 0.017 µM
  TGI: 0.106 µM
SR leukemia
  GI50: 0.0142 µM
  TGI: 16.7 µM
NCI-H460 lung
  GI50: 0.00537 µM
  TGI: 0.653 µM
OVCAR-8 ovarian
  GI50: 0.0327 µM
  TGI: 0.408 µM
NCI-H23 lung
  GI50: 0.0155 µM
  TGI: 0.146 µM
A498 renal
  GI50: 0.01 µM
  TGI: 0.0485 µM
MCF7 breast
  GI50: 0.0067 µM
  TGI: 0.231 µM
SNB-19 CNS
  GI50: 0.0162 µM
  TGI: 0.716 µM
ACHN renal
  GI50: 0.0102 µM
  TGI: 0.166 µM
CCRF-CEM leukemia
  GI50: 0.0147 µM
  TGI: 5.69 µM
SK-MEL-2 melanoma
  GI50: 0.0292 µM
  TGI: 0.0896 µM
MOLT-4 leukemia
  GI50: 0.00622 µM
  TGI: 0.488 µM
HOP-62 NSCLC
  GI50: 0.0118 µM
  TGI: 0.101 µM
DU-145 prostate
  GI50: 0.0173 µM
  TGI: 0.207 µM
NCI/ADR-RES ovarian
  GI50: 0.0198 µM
  TGI: 0.101 µM
MDA-MB-231 breast
  GI50: 0.0328 µM
  TGI: 0.132 µM
CAKI-1 renal
  GI50: 0.0285 µM
  TGI: 2.72 µM
NCI-H226 lung
  GI50: 0.0118 µM
  TGI: 0.26 µM
HCT-15 colon
  GI50: 0.0109 µM
  TGI: 0.447 µM
SK-MEL-28 melanoma
  GI50: 0.0261 µM
  TGI: 0.277 µM
OVCAR-5 ovarian
  GI50: 0.0403 µM
  TGI: 1.03 µM
SK-OV-3 ovarian
  GI50: 0.0119 µM
  TGI: 0.231 µM
PC-3 prostate
  GI50: 0.0186 µM
  TGI: 6.25 µM
HCC-2998 colon
  GI50: 0.00833 µM
  TGI: 0.205 µM
M14 melanoma
  GI50: 0.0119 µM
  TGI: 0.0522 µM
HCT-116 colon
  GI50: 0.0102 µM
  TGI: 0.179 µM
SN12C renal
  GI50: 0.019 µM
  TGI: 0.214 µM
HL-60(TB) leukemia
  GI50: 0.0183 µM
  TGI: 0.108 µM
SF-268 CNS
  GI50: 0.0256 µM
  TGI: 0.492 µM
OVCAR-4 ovarian
  GI50: 0.0266 µM
  TGI: 0.659 µM
HT29 colon
  GI50: 0.00713 µM
  TGI: 0.0935 µM
A549 NSCLC
  GI50: 0.00857 µM
  TGI: 0.177 µM
BT-549 breast
  GI50: 0.0399 µM
  TGI: 0.213 µM
LOX IMVI melanoma
  GI50: 0.0115 µM
  TGI: 0.0759 µM
UO-31 renal
  GI50: < 0.0172 µM
  TGI: 0.129 µM
U251 CNS
  GI50: 0.0238 µM
  TGI: 0.749 µM
IGROV1 ovarian
  GI50: 0.0207 µM
  TGI: 1.34 µM
SK-MEL-5 melanoma
  GI50: 0.0182 µM
  TGI: 0.0814 µM
MDA-MB-435
  GI50: 0.0121 µM
  TGI: 0.626 µM
786-0 renal
  GI50: 0.0451 µM
  TGI: 0.267 µM
UACC-257 melanoma
  GI50: 0.0448 µM
  TGI: 0.143 µM
HS 578T breast
  GI50: 0.0442 µM
  TGI: 1.28 µM
RXF 393 renal
  GI50: 0.0105 µM
  TGI: 0.0782 µM
KM12 colon
  GI50: < 0.0105 µM
  TGI: 0.757 µM
